Structures are written as SMILES.

For orientation: melting point means the temperature, or range, at which the solid turns liquid. Molecule `Cc1ccc(-c2c(-c3ccnc(Nc4ccc(CN5CCN(C)CC5)cc4)n3)cnn2C)cc1` [Example 65, [4-(4-Methyl-piperazin-1-ylmethyl)-phenyl]-[4(1-methyl-5-p-tolyl-1H-pyrazol-4-yl)-pyrimidin-2-yl]-amine] displayed a melting point of 192 °C.
As for `COc1cccc(Nc2nccc(-c3cn(CC4CCN(C)CC4)nc3-c3ccc(Cl)cc3)n2)c1` [Example 107, {4-[3-(4-Chloro-phenyl)-1-(1methyl-piperidin-4-ylmethyl)-1H-pyrazol-4-yl]-pyrimidin-2-yl}-(3-methoxy-phenyl)-amine], the melting point is 65 °C.
Turning to `COc1cccc(Nc2nccc(-c3c[nH]nc3-c3ccc(Cl)cc3)n2)c1` [Example 69, {4-[3-(4-Chloro-phenyl)-1H-pyrazol-4-yl]-pyrimidin-2-yl}-(3-methoxy-phenyl)-amine], the melting point amounted to 261 °C.
Next, `COc1ccc(Nc2nccc(-c3cnn(C)c3-c3ccc(Cl)cc3Cl)n2)cc1OC` [Example 56, {4-[5-(2,4-Dichloro-phenyl)-1-methyl-1H-pyrazol-4-yl]-pyrimidin-2-yl}-(3,4-dimethoxy-phenyl)-amine]: 157 °C; `COc1cc(Nc2nccc(-c3c[nH]nc3-c3cccc(C)c3C)n2)cc(OC)c1OC` [Example 51, {4-[3-(2,3-Dimethyl-phenyl)-1H-pyrazol-4-yl]-pyrimidin-2-yl}-(3,4,5-trimethoxy-phenyl)-amine]: 249 °C.
Next, `Cc1ccc(-c2nn(CCN(C)C)cc2-c2ccnc(Nc3ccc(N4CCN(C)CC4)cc3)n2)cc1` [Example 55, {4-[1-(2-Dimethylamino-ethyl)-3-p-tolyl-1H-pyrazol-4-yl]-pyrimidin-2-yl}-[4-(4-methyl-piperazin-1-yl)-phenyl]-amine]: 174 °C.
As for `CC1(C)CC(NCc2ccc(Nc3nccc(-c4c[nH]nc4-c4ccccc4)n3)cc2)CC(C)(C)N1` [Example 120, [4(3-Phenyl-1H-pyrazol-4-yl)-pyrimidin-2-yl]-{4[(2,2,6,6-tetramethyl-piperidin-4-ylamino)-methyl]-phenyl}-amine], the melting point amounted to 213 °C.
Consider `COc1ccc(Nc2nccc(-c3cn(C)nc3-c3ccc(Cl)cc3Cl)n2)cc1OC` [Example 57, {4-[3-(2,4Dichloro-phenyl)-1-methyl-1H-pyrazol-4-yl]-pyrimidin-2-yl}-(3,4-dimethoxy-phenyl)-amine], for which the melting point worked out at 180 °C.
In turn, `Cc1ccc(-c2nn(CCN(C)C)cc2-c2ccnc(Nc3ccc(CN4CCN(C)CC4)cc3)n2)cc1` [Example 83, {4-[1-(2-Dimethylamino-ethyl)-3-p-tolyl-1H-pyrazol-4-yl]-pyrimidin-2-yl}-[4-(4-methyl-piperazin-1-ylmethyl)-phenyl]-amine] returned a melting point of 62 °C.
Turning to `CN1CCN(Cc2ccc(Nc3nccc(-c4cnn(C)c4-c4ccc(Cl)cc4)n3)cc2)CC1` [Example 79, {4-[5-(4Chloro-phenyl)-1-methyl-1H-pyrazol-4-yl]-pyrimidin-2-yl}-[4-(4-methyl-piperazin-1-ylmethyl)-phenyl]-amine], the melting point was determined as 186 °C.
As for `CN1CCC(COc2cccc(Nc3nccc(-c4cn(C)nc4-c4ccc(Cl)cc4)n3)c2)CC1` [Example 112, {4-[3-(4-Chloro-phenyl)-1-methyl-1H-pyrazol-4-yl]-pyrimidin-2-yl}-[3-(1-methyl-piperidin-4-ylmethoxy)-phenyl]-amine], the melting point turned out to be 138 °C.
In the case of `COc1cc(Nc2nccc(-c3c[nH]nc3-c3ccccc3Cl)n2)cc(OC)c1OC` [Example 53, {4-[3-(2-Chloro-phenyl)-1H-pyrazol-4-yl]-pyrimidin-2-yl}-(3,4,5-trimethoxy-phenyl)-amine], the melting point stood at 257.5 °C.
For `Cc1ccc(-c2c(-c3ccnc(Nc4ccc(CN5CCN(C)CC5)cc4)n3)cnn2C2CCN(C)CC2)cc1` [Example 84, [4-(4-Methyl-piperazin-1-ylmethyl)-phenyl]-{4-[1-(1-methyl-piperidin-4-yl)-5-p-tolyl-1H-pyrazol-4-yl]-pyrimidin-2-yl}-amine], the melting point came to 187 °C.
For the molecule `Cc1ccc(-c2nn(C)cc2-c2ccnc(Nc3ccc(N4CCN(C)CC4)cc3)n2)cc1` [Example 64, [4-(4-Methyl-piperazin-1-yl)-phenyl]-[4-(1-methyl-3-p-tolyl-1H-pyrazol-4-yl)-pyrimidin-2-yl]-amine], the melting point came out at 203 °C.
For the molecule `Clc1ccc(-c2n[nH]cc2-c2ccnc(Nc3ccc(N4CCNCC4)cc3)n2)cc1` [Example 122, {4-[3-(4-Chloro-phenyl)-1H-pyrazol-4yl]-pyrimidin-2-yl}-(4piperazin-1-yl-phenyl)-amine], the melting point turned out to be 214 °C.
Regarding `Cc1cccc(-c2n[nH]cc2-c2ccnc(Nc3ccc(N4CCN(C)CC4)cc3)n2)c1C` [Example 50, {4-[3-(2,3-Dimethyl-phenyl)-1H-pyrazol-4-yl]-pyrimidin-2-yl}-[4-(4-methyl-piperazin-1-yl)phenyl]-amine], the melting point was determined as 305 °C.
Next, `Cc1ccc(-c2n[nH]cc2-c2ccnc(Nc3ccc(CN4CCN(CCO)CC4)cc3)n2)cc1` [Example 111, 2-(4-{4-[4-(3-p-Tolyl-1H-pyrazol-4yl)-pyrimidin-2-ylamino]-benzyl}piperazin-1-yl)-ethanol]: 233 °C; `CN1CCN(Cc2ccc(Nc3nccc(-c4c[nH]nc4-c4cccc(C(F)(F)F)c4)n3)cc2)CC1` [Example 110, [4-(4-Methyl-piperazin-1-ylmethyl)-phenyl]-{4-[3-(3-trifluoromethyl-phenyl)-1H-pyrazol-4yl]-pyrimidin-2-yl}-amine]: 221 °C; `Cc1ccc(-c2n[nH]cc2-c2ccnc(Nc3ccc(C(=O)N4CCN(C)CC4)cc3)n2)cc1` [Example 59, (4Methyl-piperazin-1-yl)-{4-[4-(3-p-tolyl-1H-pyrazol-4-yl)-pyrimidin-2-ylamino]-phenyl}-methanone]: 264 °C.
In turn, `CN(C)CCn1ncc(-c2ccnc(Nc3ccc(CN4CCN(C)CC4)cc3)n2)c1-c1ccc(Cl)cc1` [Example 77, {4-[5-(4-Chloro-phenyl)-1-(2-dimethylamino-ethyl)-1H-pyrazol-4yl]-pyrimidin-2-yl}-[4-(4-methyl-piperazin-1-ylmethyl)-phenyl]-amine] displayed a melting point of 159 °C.
In the case of `Cc1ccc(-c2nn(C3CCN(C)CC3)cc2-c2ccnc(Nc3ccc(CN4CCN(C)CC4)cc3)n2)cc1` [Example 85, [4-(4-Methyl-piperazin-1-ylmethyl)-phenyl]-{4-[1-(1-methyl-piperidin-4-yl)-3-p-tolyl-1H-pyrazol-4-yl]-pyrimidin-2-yl}-amine], the melting point amounted to 174 °C.
As to `COc1cccc(Nc2nccc(-c3cnn(CC4CCN(C)CC4)c3-c3ccc(Cl)cc3)n2)c1` [Example 108, {4-[5-(4-Chloro-phenyl)-1-(1-methyl-piperidin-4-ylmethyl)-1H-pyrazol-4-yl]-pyrimidin-2-yl}-(3-methoxy-phenyl)-amine], the melting point worked out at 180 °C.
Regarding `COc1cc(Nc2nccc(-c3cn(CCN(C)C)nc3-c3ccc(Cl)cc3)n2)cc(OC)c1OC` [Example 70, {4-[3-(4-Chloro-phenyl)-1-(2-dimethylamino-ethyl)-1H-pyrazol-4-yl]-pyrimidin-2-yl}-(3,4,5-trimethoxy-phenyl)-amine], the melting point was determined as 150 °C.
Take `CN1CCN(Cc2ccc(Nc3nccc(-c4cn(C)nc4-c4ccc(Cl)cc4)n3)cc2)CC1` [Example 78, {4-[3-(4-Chloro-phenyl)-1-methyl-1H-pyrazol-4yl]-pyrimidin-2-yl}-[4-(4-methyl-piperazin-1-ylmethyl)-phenyl]-amine]: the melting point is 166 °C.
With `COc1cc(OC)cc(-c2n[nH]cc2-c2ccnc(Nc3cccc(S(N)(=O)=O)c3)n2)c1` [Example 113, 3-{4-[3-(3,5-Dimethoxy-phenyl)-1H-pyrazol-4-yl]-pyrimidin-2-ylamino}-benzenesulfonamide] the figure was 257 °C; with `CN1CCC(n2ncc(-c3ccnc(Nc4ccc(CN5CCN(C)CC5)cc4)n3)c2-c2ccc(Cl)cc2)CC1` [Example 81, {4-[5-(4-Chloro-phenyl)-1-(1-methyl-piperidin-4yl)-1H-pyrazol-4yl]-pyrimidin-2-yl}-[4-(4methyl-piperazin-1-ylmethyl)-phenyl]-amine], 180 °C.
Consider `CCN1CCN(c2ccc(Nc3nccc(-c4c[nH]nc4-c4ccc(Cl)cc4)n3)cc2)CC1` [Example 121, {4-[3-(4-Chloro-phenyl)-1H-pyrazol-4yl]-pyrimidin-2-yl}-[4-(4-ethyl-piperazin-1-yl)-phenyl]-amine], for which the melting point was determined as 268 °C.
Regarding `CCN1CCN(Cc2ccc(Nc3nccc(-c4cn(C)nc4-c4ccc(C)cc4)n3)cc2)CC1` [Example 117, [4-(4-Ethyl-piperazin-1-ylmethyl)-phenyl]-[4-(1-methyl-3-p-tolyl-1H-pyrazol-4-yl)-pyrimidin-2-yl]-amine], the melting point came out at 88 °C.
In turn, `CCN1CCN(Cc2ccc(Nc3nccc(-c4cnn(C)c4-c4ccc(C)cc4)n3)cc2)CC1` [Example 118, [4-(4-Ethyl-piperazin-1-ylmethyl)-phenyl]-[4-(1-methyl-5-p-tolyl-1H-pyrazol-4-yl)-pyrimidin-2-yl]-amine] displayed a melting point of 82 °C.
Take `CCN1CCN(Cc2ccc(Nc3nccc(-c4c[nH]nc4-c4ccccc4)n3)cc2)CC1` [Example 115, [4-(4-Ethyl-piperazin-1-ylmethyl)-phenyl]-[4-(3-phenyl-1H-pyrazol-4-yl)-pyrimidin-2-yl]-amine]: the melting point came to 227 °C.
Next, `COc1cc(Nc2nccc(-c3c[nH]nc3-c3ccc(Cl)cc3)n2)cc(OC)c1OC` [Example 67, {4-[3-(4-Chloro-phenyl)-1H-pyrazol-4-yl]-pyrimidin-2-yl}-(3,4,5-trimethoxy-phenyl)-amine]: 271 °C; `Cc1ccc(-c2c(-c3ccnc(Nc4ccc(N5CCN(C)CC5)cc4)n3)cnn2CCN(C)C)cc1` [Example 54, {4-[1-(2-Dimethylamino-ethyl)-5-p-tolyl-1H-pyrazol-4-yl]-pyrimidin-2-yl}-[4-(4-methyl-piperazin-1-yl)-phenyl]-amine]: 184 °C.

For the origin of these results see patent US7691855B2, “Phenyl-[4-(3-phenyl-1h-pyrazol-4-yl)-pyrimidin-2-yl)-amine derivatives” (Novartis AG, priority 2002, dated 2010).
